This note sets out measurements from paper PMC11873635 (Acta Pharmaceutica Sinica. B, 2024).

For orientation: IC50 means the concentration that gives 50% inhibition. Low readings indicate greater potency in that assay, high ones weaker potency in that assay.

The structures appear in SMILES notation.

One test concerns the target T1, human SMS1 (Homo sapiens, UniProt Q86VZ5).
T1 sequence (Q86VZ5 1-413): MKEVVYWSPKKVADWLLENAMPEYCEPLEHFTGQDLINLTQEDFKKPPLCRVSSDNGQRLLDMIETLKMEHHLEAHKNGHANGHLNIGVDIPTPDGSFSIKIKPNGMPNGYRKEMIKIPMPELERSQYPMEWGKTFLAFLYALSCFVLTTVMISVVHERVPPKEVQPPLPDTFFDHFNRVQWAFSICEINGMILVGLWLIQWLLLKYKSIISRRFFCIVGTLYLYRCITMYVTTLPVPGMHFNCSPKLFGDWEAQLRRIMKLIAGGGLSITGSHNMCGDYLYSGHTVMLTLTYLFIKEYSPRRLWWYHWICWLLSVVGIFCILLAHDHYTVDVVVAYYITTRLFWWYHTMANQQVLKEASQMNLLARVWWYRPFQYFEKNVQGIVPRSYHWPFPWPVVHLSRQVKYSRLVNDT
In words: purified SMS enzyme inhibitory assay in vitro. The settings on record: for inhibition at 100 µM: read-out: SMS1 Inhibition @ 100 μmol/L (%). The class given is biochemical.

A further test concerns the target T2, human SMS2 (Homo sapiens, UniProt Q8NHU3).
T2 sequence (Q8NHU3 1-365): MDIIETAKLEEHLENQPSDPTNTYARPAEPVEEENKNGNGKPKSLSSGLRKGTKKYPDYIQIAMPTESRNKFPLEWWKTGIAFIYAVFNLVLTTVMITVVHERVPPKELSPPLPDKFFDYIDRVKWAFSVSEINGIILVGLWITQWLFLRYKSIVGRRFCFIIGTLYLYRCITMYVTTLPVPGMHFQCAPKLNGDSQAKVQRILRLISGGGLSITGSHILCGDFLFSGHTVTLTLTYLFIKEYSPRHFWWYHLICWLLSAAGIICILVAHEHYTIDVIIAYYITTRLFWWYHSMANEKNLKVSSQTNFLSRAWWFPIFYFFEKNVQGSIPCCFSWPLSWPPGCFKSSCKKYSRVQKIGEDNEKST
In words: purified SMS enzyme inhibitory assay in vitro. The class given is biochemical. The conditions noted are these: for LLE: pIC50, SMS2 – ClogP; for inhibition at 1 µM: read-out: SMS2 Inhibition @ 1 μmol/L (%); for Selectivity ratio: IC50, SMS1/IC50, SMS2.

With `O=C(Nc1cccnc1)c1sccc1OCc1cccc(Cl)c1` [14b], on human SMS1, the inhibition at 100 µM turned out to be 60%. Moreover, on human SMS2, the IC50 is 199 nM, the LLE was 3.02 and the inhibition at 1 µM was 68%.
As for `O=C(Nc1cccnc1)c1sc([N+](=O)[O-])cc1OCc1ccccc1` [5e], at human SMS1, the inhibition at 100 µM was -4%.
For the compound `Cc1ccncc1NC(=O)c1sccc1OCc1ccccc1` [7f], the inhibition at 100 µM at human SMS1 is -17%. In addition, at human SMS2, the inhibition at 1 µM was -4%.
As for `O=C(Nc1ccc(F)nc1)c1sccc1OCc1ccccc1` [7d], at human SMS1, the inhibition at 100 µM turned out to be 57%. For the same compound, on human SMS2, the inhibition at 1 µM was 12%.
As for `O=C(Nc1cccnc1F)c1sccc1OCc1ccccc1` [7a], on human SMS1, the inhibition at 100 µM amounted to 53%. In addition, on human SMS2, the IC50 was found to be 1790 nM, the LLE was 2.31 and the inhibition at 1 µM turned out to be 41%.
Turning to `COc1ccccc1COc1ccsc1C(=O)Nc1cccnc1` [14e], on human SMS1, the concentration for half-maximal inhibition (IC50) amounted to 160000 nM and the inhibition at 100 µM stood at 33%. At human SMS2, the half-inhibitory concentration (IC50) came to 70 nM, the Selectivity ratio stood at 2295, the LLE came to 4.04 and the inhibition at 1 µM stood at 82%.
Consider `O=C(Nc1cccnc1)c1sccc1OCc1ccc2ccccc2c1` [9b], for which the inhibition at 100 µM on human SMS1 amounted to 42%. Moreover, the inhibition at 1 µM at human SMS2 is 36%.
On to `O=C(Nc1cccnc1)c1ncccc1OCc1ccccc1` [5b], for which the inhibition at 100 µM at human SMS1 was -18%.
As to `O=C(Nc1cccnc1)c1sccc1OCc1cccc2ccccc12` [9a], at human SMS1, the inhibition at 100 µM was found to be 39%. Also, on human SMS2, the inhibition at 1 µM was found to be 86%.
With `O=C(Nc1cnccc1Cl)c1sccc1OCc1ccccc1` [7b], the inhibition at 100 µM at human SMS1 is -39%. Moreover, the inhibition at 1 µM on human SMS2 came out at 7%.
As to `Cc1ccc(NC(=O)c2sccc2OCc2ccccc2)cn1` [7h], on human SMS1, the inhibition at 100 µM was found to be 22%. Also, the inhibition at 1 µM at human SMS2 was -3%.
For `CCCCCCCCOc1ccsc1C(=O)Nc1cccnc1` [9e], in that order: 67% and -11%.
`O=C(Nc1cccnc1)c1sccc1OCc1ccccc1` [5a]: on human SMS1, inhibition was half-maximal at 219000 nM (IC50) and the inhibition at 100 µM turned out to be 20%. At human SMS2, the IC50 was 400 nM, the Selectivity ratio worked out at 547, the LLE stood at 3.33 and the inhibition at 1 µM was 66%.
In the case of `O=C(Nc1ccccc1)c1sccc1OCc1ccccc1` [7k], the inhibition at 1 µM on human SMS2 is 3%.
Turning to `CCCCCCCCOc1c(Cl)cccc1COc1ccsc1C(=O)Nc1cccnc1` [14q], at human SMS1, half-maximal inhibition (IC50) was put at 10000 nM and the inhibition at 100 µM was found to be 92%. For the same compound, on human SMS2, the half-inhibitory concentration (IC50) amounted to 15 nM, the Selectivity ratio turned out to be 649, the LLE is listed as 1.83 and the inhibition at 1 µM is 98%.
With `CCCCCCCCCCCCOc1ccccc1COc1ccsc1C(=O)Nc1cccnc1` [14p], on human SMS1, the IC50 amounted to 18000 nM and the inhibition at 100 µM came to 81%. Besides, on human SMS2, the half-maximal inhibitory concentration (IC50) was 34 nM, the Selectivity ratio was 540, the LLE came to 0.64 and the inhibition at 1 µM was 93%.
As for `O=C(Nc1cccnc1)c1sccc1OCc1ccc(Cl)cc1` [14c], the inhibition at 100 µM at human SMS1 turned out to be 52%. For the same compound, on human SMS2, the half-maximal inhibitory concentration (IC50) was 38800 nM, the LLE is listed as 0.75 and the inhibition at 1 µM was determined as 26%.
Turning to `Cc1ncccc1NC(=O)c1sccc1OCc1ccccc1` [7e], at human SMS1, the inhibition at 100 µM was -20%. Besides, the inhibition at 1 µM at human SMS2 stood at 3%.
Turning to `O=C(Nc1cncc(F)c1)c1sccc1OCc1ccccc1` [7c], at human SMS1, the inhibition at 100 µM is 52%. Moreover, the inhibition at 1 µM at human SMS2 stood at 56%.
As for `CCOc1ccccc1COc1ccsc1C(=O)Nc1cccnc1` [14f], at human SMS1, 78000 nM corresponded to half-maximal inhibition (IC50) and the inhibition at 100 µM turned out to be 56%. Further, on human SMS2, inhibition was half-maximal at 78 nM (IC50), the Selectivity ratio came to 1004, the LLE is 3.67 and the inhibition at 1 µM came to 83%.
Take `O=C(Nc1cccnn1)c1sccc1OCc1ccccc1` [7i]: the inhibition at 100 µM at human SMS1 was 22%. For the same compound, at human SMS2, the inhibition at 1 µM turned out to be 25%.
`O=C(Nc1cccnc1)c1sccc1OCc1c2ccccc2cc2ccccc12` [9c]: the inhibition at 100 µM at human SMS1 was found to be 5%. Also, the inhibition at 1 µM at human SMS2 was determined as 79%.
As to `CCCCCCOc1ccccc1COc1ccsc1C(=O)Nc1cccnc1` [14j], on human SMS1, the half-inhibitory concentration (IC50) was 6000 nM and the inhibition at 100 µM worked out at 93%. Further, at human SMS2, inhibition was half-maximal at 67 nM (IC50), the Selectivity ratio is on record as 85, the LLE turned out to be 2.52 and the inhibition at 1 µM is 88%.
Turning to `CCCCCOc1ccccc1COc1ccsc1C(=O)Nc1cccnc1` [14i], at human SMS1, the concentration for half-maximal inhibition (IC50) is 10000 nM and the inhibition at 100 µM was 88%. At human SMS2, the IC50 stood at 74 nM, the Selectivity ratio worked out at 142, the LLE was determined as 2.62 and the inhibition at 1 µM came to 86%.
As to `CCCCCCCCCCCOc1ccccc1COc1ccsc1C(=O)Nc1cccnc1` [14o], at human SMS1, half-maximal inhibition (IC50) required 13000 nM and the inhibition at 100 µM came to 90%. Moreover, at human SMS2, the 50% inhibitory concentration (IC50) was found to be 29 nM, the Selectivity ratio was 445, the LLE is listed as 0.98 and the inhibition at 1 µM turned out to be 95%.
`CCCCCCCCOc1ccc(Cl)cc1COc1ccsc1C(=O)Nc1cccnc1` [14r]: at human SMS1, the 50% inhibitory concentration (IC50) worked out at 8000 nM and the inhibition at 100 µM stood at 85%. In addition, at human SMS2, the IC50 worked out at 111 nM, the Selectivity ratio is given as 70, the LLE is recorded as 1.01 and the inhibition at 1 µM was determined as 91%.
Consider `CCCCCCCCCCOc1ccccc1COc1ccsc1C(=O)Nc1cccnc1` [14n], for which, at human SMS1, it took 13000 nM to reach half-maximal inhibition (IC50) and the inhibition at 100 µM was 87%. At human SMS2, the midpoint of inhibition, the IC50, lay at 31 nM; the Selectivity ratio is listed as 409; the LLE is 1.39; the inhibition at 1 µM amounted to 92%.
On to `Cc1cc(OCc2ccccc2)c(C(=O)Nc2cccnc2)s1` [5c], for which the inhibition at 100 µM at human SMS1 is -14%. Also, the inhibition at 1 µM at human SMS2 came out at 34%.
Take `O=C(Nc1ccnnc1)c1sccc1OCc1ccccc1` [7j]: at human SMS1, the inhibition at 100 µM amounted to 5%. Moreover, the inhibition at 1 µM on human SMS2 was -16%.
For `CCCCCCCOc1ccccc1COc1ccsc1C(=O)Nc1cccnc1` [14k], on human SMS1, the IC50 turned out to be 13000 nM and the inhibition at 100 µM came to 90%. At human SMS2, the IC50 came to 29 nM, the Selectivity ratio amounted to 459, the LLE turned out to be 2.37 and the inhibition at 1 µM is 91%.
With `CCCOc1ccccc1COc1ccsc1C(=O)Nc1cccnc1` [14g], at human SMS1, inhibition was half-maximal at 49000 nM (IC50) and the inhibition at 100 µM worked out at 74%. At human SMS2, half-maximal inhibition (IC50) was put at 103 nM, the Selectivity ratio was found to be 477, the LLE turned out to be 3.18 and the inhibition at 1 µM was found to be 78%.
As to `O=C(Nc1cccnc1)c1sccc1OS(=O)(=O)c1ccccc1` [compound 10], the inhibition at 1 µM at human SMS2 is -3%.
Consider `Cc1nc(OCc2ccccc2)c(C(=O)Nc2cccnc2)s1` [5d], for which the inhibition at 100 µM at human SMS1 stood at 10%.
With `O=C(Nc1cccnc1)c1sccc1OCc1cccc2cccnc12` [9d], at human SMS1, the inhibition at 100 µM turned out to be 21%. For the same compound, at human SMS2, the inhibition at 1 µM stood at 45%.
`CN(C(=O)c1sccc1OCc1ccccc1)c1cccnc1` [compound 6]: on human SMS1, the inhibition at 100 µM came out at 20%. Besides, at human SMS2, the inhibition at 1 µM was 28%.
Consider `CCCCCCCCCOc1ccccc1COc1ccsc1C(=O)Nc1cccnc1` [14m], for which, on human SMS1, the IC50 worked out at 13000 nM and the inhibition at 100 µM was 86%. In addition, at human SMS2, it took 35 nM to reach half-maximal inhibition (IC50), the Selectivity ratio is 360, the LLE was 1.58 and the inhibition at 1 µM stood at 91%.
As for `CCCCOc1ccccc1COc1ccsc1C(=O)Nc1cccnc1` [14h], at human SMS1, half-maximal inhibition (IC50) required 20000 nM and the inhibition at 100 µM came out at 81%. For the same compound, on human SMS2, the IC50 amounted to 65 nM, the Selectivity ratio is 313, the LLE is given as 3.14 and the inhibition at 1 µM came to 85%.
`O=C(Nc1cccnc1)c1scc(Br)c1OCc1ccccc1` [5f]: the inhibition at 100 µM at human SMS1 was found to be 14%. Also, the inhibition at 1 µM on human SMS2 was determined as 42%.
For `Cc1cncc(NC(=O)c2sccc2OCc2ccccc2)c1` [7g], in that order: 28% and 12%.
Regarding `O=C(Nc1cccnc1)c1sccc1OCc1cc(F)ccc1Cl` [14d], on human SMS1, the concentration for half-maximal inhibition (IC50) came out at 102000 nM and the inhibition at 100 µM is 53%. Further, the inhibition at 1 µM at human SMS2 turned out to be 79%.
In the case of `O=C(Nc1cccnc1)c1sccc1OCc1ccccc1Cl` [14a], the inhibition at 100 µM at human SMS1 was found to be 56%. On human SMS2, the half-inhibitory concentration (IC50) turned out to be 307 nM, the LLE was 2.90 and the inhibition at 1 µM was 64%.
